Patent publication US20240382629A1, “HETEROBIVALENT AND HOMOBIVALENT AGENTS TARGETING FIBROBLAST ACTIVATION PROTEIN ALPHA AND/OR PROSTATE-SPECIFIC MEMBRANE ANTIGEN” (The Johns Hopkins University, priority 2021, published 2024)
Where “and” joins values, the source holds several entries; their conditions need not be identical. Equal entries are not always repeated.

Test system: U87 tumor
Assay: Biodistribution ([^18F]JHU1221823), carrier / specific activity study
Format: in vivo, mouse
Settings: individual mouse
Source text: Biodistribution of Representative Compounds

[1] = NOD/SCID, U87 tumor, Carrier 700, 60 min post injection
[2] = Nude mice, U87 tumor, Baseline (~5000 mCi/μmol), 60 min post injection
[3] = Nude mice, U87 tumor, Carrier 350 (350 mCi/μmol), 60 min post injection
[4] = Nude mice, U87 tumor, Carrier 700, 60 min post injection
[5] = U87 tumor, Baseline, second block (stands before <NOD/SCID> heading), 60 min post injection

For `N#C[C@@H]1CCCN1C(=O)CNC(=O)c1ccnc2ccc(OCCCNC(=O)CCOCCOCCOCCOCCNC(=O)[C@H](CCCCNC(=O)c3ccc([18F])nc3)NC(=O)CN3CCN(CC(=O)O)CCN(CC(=O)O)CCN(CC(=O)O)CC3)cc12` [[^18F]JHU1221823], the “Liver % ID/g” value [1] was 2.36 % ID/g, the “Lung % ID/g” value [1] was 3.66 % ID/g and the “Muscle % ID/g” value [1] was 1.99 % ID/g. The “Pancreas % ID/g” value [1] was 13.03 % ID/g, the “Salivary gland % ID/g” value [1] was 11.31 % ID/g and the “Small intestine % ID/g” value [1] was 3.48 % ID/g. For the same compound, the “Spleen % ID/g” value [1] was 1.46 % ID/g, the “Stomach % ID/g” value [1] was 1.64 % ID/g and the “Tumor % ID/g” value [1] was 7.79 % ID/g. For the same compound, the “Bladder % ID/g” value [2] was 2.02 % ID/g and 2.74 % ID/g, the “Blood % ID/g” value [2] was 10.83 % ID/g and 12.08 % ID/g and the “Brain % ID/g” value [2] was 0.22 % ID/g and 0.24 % ID/g. The “Fat % ID/g” value [2] was 1.10 % ID/g and 0.89 % ID/g, the “Femur % ID/g” value [2] was 1.98 % ID/g and 2.84 % ID/g and the “Heart % ID/g” value [2] was 5.09 % ID/g and 5.98 % ID/g. The “Kidney % ID/g” value [2] was 2.76 % ID/g and 3.06 % ID/g, the “Large intestine % ID/g” value [2] was 1.38 % ID/g and 1.42 % ID/g and the “Liver % ID/g” value [2] was 3.56 % ID/g and 3.06 % ID/g. For the same compound, the “Lung % ID/g” value [2] was 6.48 % ID/g and 7.46 % ID/g, the “Muscle % ID/g” value [2] was 1.44 % ID/g and 2.06 % ID/g and the “Pancreas % ID/g” value [2] was 3.42 % ID/g and 3.30 % ID/g. The “Salivary gland % ID/g” value [2] was 6.35 % ID/g and 7.47 % ID/g, the “Small intestine % ID/g” value [2] was 2.47 % ID/g and 2.93 % ID/g and the “Spleen % ID/g” value [2] was 2.17 % ID/g and 1.96 % ID/g. For the same compound, the “Stomach % ID/g” value [2] was 1.14 % ID/g and 1.32 % ID/g, the “Tumor % ID/g” value [2] was 2.14 % ID/g and 2.52 % ID/g and the “Bladder % ID/g” value [3] was 1.62 % ID/g and 1.85 % ID/g. For the same compound, the “Blood % ID/g” value [3] was 6.11 % ID/g and 4.56 % ID/g, the “Brain % ID/g” value [3] was 0.16 % ID/g and 0.12 % ID/g and the “Fat % ID/g” value [3] was 0.54 % ID/g and 1.24 % ID/g. The “Femur % ID/g” value [3] was 3.83 % ID/g and 4.47 % ID/g, the “Heart % ID/g” value [3] was 2.83 % ID/g and 2.18 % ID/g and the “Kidney % ID/g” value [3] was 2.25 % ID/g and 1.88 % ID/g. The “Large intestine % ID/g” value [3] was 1.92 % ID/g and 1.61 % ID/g, the “Liver % ID/g” value [3] was 2.06 % ID/g and 1.75 % ID/g and the “Lung % ID/g” value [3] was 3.70 % ID/g and 3.20 % ID/g. The “Muscle % ID/g” value [3] was 2.58 % ID/g and 2.23 % ID/g, the “Pancreas % ID/g” value [3] was 5.80 % ID/g and 6.78 % ID/g and the “Salivary gland % ID/g” value [3] was 10.81 % ID/g and 11.50 % ID/g. For the same compound, the “Small intestine % ID/g” value [3] was 2.29 % ID/g and 2.54 % ID/g, the “Spleen % ID/g” value [3] was 1.45 % ID/g and 1.12 % ID/g and the “Stomach % ID/g” value [3] was 1.60 % ID/g and 1.53 % ID/g. The “Tumor % ID/g” value [3] was 2.01 % ID/g and 2.53 % ID/g, the “Bladder % ID/g” value [4] was 2.15 % ID/g and 2.30 % ID/g and the “Blood % ID/g” value [4] was 10.55 % ID/g and 9.33 % ID/g. The “Brain % ID/g” value [4] was 0.21 % ID/g and 0.19 % ID/g, the “Fat % ID/g” value [4] was 0.41 % ID/g and 0.56 % ID/g and the “Femur % ID/g” value [4] was 2.93 % ID/g and 3.18 % ID/g. The “Heart % ID/g” value [4] was 4.92 % ID/g and 4.38 % ID/g, the “Kidney % ID/g” value [4] was 2.54 % ID/g and 2.52 % ID/g and the “Large intestine % ID/g” value [4] was 1.45 % ID/g and 1.79 % ID/g. For the same compound, the “Liver % ID/g” value [4] was 2.76 % ID/g and 2.85 % ID/g, the “Lung % ID/g” value [4] was 6.05 % ID/g and 5.08 % ID/g and the “Muscle % ID/g” value [4] was 2.06 % ID/g and 2.07 % ID/g. The “Pancreas % ID/g” value [4] was 3.40 % ID/g and 4.43 % ID/g, the “Salivary gland % ID/g” value [4] was 9.08 % ID/g and 7.18 % ID/g and the “Small intestine % ID/g” value [4] was 2.37 % ID/g and 1.98 % ID/g. The “Spleen % ID/g” value [4] was 1.75 % ID/g and 1.70 % ID/g, the “Stomach % ID/g” value [4] was 1.18 % ID/g and 1.57 % ID/g and the “Tumor % ID/g” value [4] was 1.81 % ID/g and 2.22 % ID/g. The “Bladder % ID/g” value [5] was 3.22 % ID/g and 10.62 % ID/g, the “Blood % ID/g” value [5] was 11.98 % ID/g and 10.01 % ID/g and the “Brain % ID/g” value [5] was 0.23 % ID/g and 0.21 % ID/g. For the same compound, the “Fat % ID/g” value [5] was 0.53 % ID/g and 0.71 % ID/g, the “Femur % ID/g” value [5] was 1.95 % ID/g and 2.78 % ID/g and the “Heart % ID/g” value [5] was 7.41 % ID/g and 6.48 % ID/g. For the same compound, the “Kidney % ID/g” value [5] was 3.14 % ID/g and 3.67 % ID/g, the “Large intestine % ID/g” value [5] was 1.66 % ID/g and 2.70 % ID/g and the “Liver % ID/g” value [5] was 4.04 % ID/g and 4.72 % ID/g. For the same compound, the “Lung % ID/g” value [5] was 7.27 % ID/g and 6.79 % ID/g, the “Muscle % ID/g” value [5] was 1.14 % ID/g and 2.13 % ID/g and the “Pancreas % ID/g” value [5] was 6.82 % ID/g and 9.52 % ID/g. For the same compound, the “Salivary gland % ID/g” value [5] was 11.69 % ID/g and 12.09 % ID/g, the “Small intestine % ID/g” value [5] was 3.79 % ID/g and 3.54 % ID/g and the “Spleen % ID/g” value [5] was 2.33 % ID/g and 1.99 % ID/g. The “Stomach % ID/g” value [5] was 1.66 % ID/g and 1.97 % ID/g, the “Tumor % ID/g” value [5] was 1.17 % ID/g and 5.00 % ID/g and the “Bladder % ID/g” value (carrier not given) was 6.41 % ID/g and 2.64 % ID/g. The “Blood % ID/g” value (carrier not given) was 9.28 % ID/g and 9.80 % ID/g, the “Brain % ID/g” value (carrier not given) was 0.23 % ID/g and 0.22 % ID/g and the “Fat % ID/g” value (carrier not given) was 0.47 % ID/g and 1.68 % ID/g. For the same compound, the “Femur % ID/g” value (carrier not given) was 2.55 % ID/g and 3.11 % ID/g, the “Heart % ID/g” value (carrier not given) was 4.31 % ID/g and 4.98 % ID/g and the “Kidney % ID/g” value (carrier not given) was 2.70 % ID/g and 2.77 % ID/g. For the same compound, the “Large intestine % ID/g” value (carrier not given) was 1.29 % ID/g and 1.69 % ID/g, the “Liver % ID/g” value (carrier not given) was 2.68 % ID/g and 3.29 % ID/g and the “Lung % ID/g” value (carrier not given) was 5.58 % ID/g and 5.91 % ID/g. The “Muscle % ID/g” value (carrier not given) was 1.79 % ID/g and 1.78 % ID/g, the “Pancreas % ID/g” value (carrier not given) was 1.62 % ID/g and 2.66 % ID/g and the “Salivary gland % ID/g” value (carrier not given) was 7.44 % ID/g and 6.43 % ID/g. The “Small intestine % ID/g” value (carrier not given) was 2.59 % ID/g and 3.46 % ID/g, the “Spleen % ID/g” value (carrier not given) was 1.85 % ID/g and 2.43 % ID/g and the “Stomach % ID/g” value (carrier not given) was 0.84 % ID/g and 1.45 % ID/g. For the same compound, the “Tumor % ID/g” value (carrier not given) was 4.35 % ID/g and 7.0+ % ID/g.
